One compound from PMC7537338, “CD47/SIRPα blocking peptide identification and synergistic effect with irradiation for cancer immunotherapy” (Journal for Immunotherapy of Cancer, 2020) can be followed below.

Where a SMILES comes first, the peptide text is derived from it. [ ]: non-standard residue; d: D form.

Series [1] addresses T1, human CD47/SIRPα interaction (Homo sapiens, UniProt Q08722).
T1 construct: Human or mouse CD47-IgV-Domain-hIg fusion proteins (20 nM, Sino Biological, China); purchased Sino Biological (hIg fusion); ACROBiosystems (biotinylated human CD47); host or cells: SIRPα partner: CHO cells stably expressing human SIRPα
Kind of series: Blocking assay, human CD47 protein binding to CHO cells expressing human SIRPα (flow cytometry). Conditions: blockade of peptides to hCD47 relative to parent pep-20, Table S4. As for the experimental part: Human or mouse CD47-IgV-Domain-hIg fusion proteins (20 nM, Sino Biological, China), or biotinylated human CD47 protein (20 nM, ACROBiosystems, USA) was incubated with titrating concentrations of peptides or anti-human CD47 antibody (B6H12) in phosphate-buffered saline (PBS, pH 7.4) for 1 hour at 4°C. The mixture was incubated with human or mice SIRPα overexpressed Chinese hamster ovary cells for 30 min at 4°C, washed to remove unbound mixtures and phycoerythrin (PE)-conjugated goat anti-human IgG or PE-conjugated streptavidin was incubated (eBioscience, USA). Cells were then analyzed by flow cytometry (BD Biosciences, USA). The IC50 was determined from sigmoidal dose response curves illustrated by GraphPad Prism.

Series [2] is described as follows: Peptide stability assay in 10% human serum. It counts as in vitro ADME. Conditions: 200 μM peptide in normal saline, fresh human serum 10% vol/vol, 37°C, sampled 0 min to 48 h, RP-HPLC, triplicates. How it is done:
proteolysis compared with parent pep-20. (A, B) Dose response curves of pep-20-D12 interfering CD47-Sirpα interaction. […]
peptide and serum were analyzed by RP-HPLC. Error bars indicate standard deviation of triplicates. Data are represented as means ± SEM. (E, F) The pharmacokinetic analysis […]
of pep-20 and pep- 20-D12.
Data are represented as means ± SEM. […]
human serum (10%, vol/vol).
8h, 24h, 36h and 48h. The acetonitrile-glacial acetic acid mixture was utilized 136 to terminate the enzymatic reaction. After centrifuged at 12000 rpm for 10 min, 137 […]
Pharmacokinetic assays in vivo 140 […]
intravenous dose of 40 mg/kg of peptides. Blood samples were collected an d 142 […]
rpm for 10 min. The supernatant was analyzed by RP-HPLC. The 145 pharmacokinetic parameters of peptides were determined by 146 noncompartmental analysis (NCA) using Phoenix WinNonlin software program 147 5.2.1 (Certara, Princeton, USA). The maximum plasma concentration Cmax and 148 elimination half-life (T1/2) were calculated. 149

Series [3] has as its system MC38 tumor-bearing C57BL/6 mice. Put plainly: Hematological toxicity in MC38 tumor-bearing mice. Type of series: in vivo. Conditions: 2 mg/kg i.p. every day two weeks versus miap301 400 μg every 3 days x5, day 14, n = 4 - 5. As for the experimental part:
anti-CD47. (A, B) MC38 tumor-bearing C57BL/6 mice were treated i.p. with 2 mg/kg pep-20-D12 every day for two weeks or 400μg anti -mouse CD47 antibody
(miap301) every 3 days for a total of 5 times, and normal saline or ratIg as the negative controls, respectively (n = 4 - 5). On day 14, hematologic parameters of red blood cell (A), hemoglobin (B) level were analyzed. Data are represented as means ± SEM. Statistical significance was determined by unpaired Student's t test.
111 Mouse toxicity assays
112 Normal C57BL/6 mice were injected s.c. with 2 mg/kg peptides or normal 113 saline as the negative control daily from day 1 to 14 (n = 5). On days 0 and 14, 114 mice blood samples were collected via retro-orbital bleed. For MC38 115 tumor-bearing mice, blood samples were collected after treatment (n = 4 - 5).
116 Hematologic and blood biochemical parameters were analyzed by ADVIA 117 2120i Hematology Analyzer (Siemens, Germany). […]
124 The 3D structure of pep-20 was predicted by pep-FOLD3. […] The ΔdAffinity 126 between pep-20 and pep-20-derived alanine substituation analogue peptides 127 were calculated by Ala-scanning of molecular operating environment (MOE, 128 Chemical Computing Group, CA), which was used to display the structure of 129 pep-20 and docking model of pep-20 and CD47 including interaction of […]

The nature of series [4]: in vivo. Conditions: C57BL/6, mouse, iv, 40 mg/kg.
Experimental: (§1) of pep-20 and pep- 20-D12. The plasma concentration-time curve of pep-20 (E) and
(§2) C57BL/6 mice with weight of 18-20 g were administrated with a single 141
(§3) centrifuged at 8000 rpm for 10 min at the indicated intervals. Plasma wa s 143
(§4) further mixed with 10% HClO4 at a ratio of 2∶1 (v/v) and centrifuged at 16,000 144
The nature of series [5]: Pharmacokinetic assay in vivo. Conditions: C57BL/6, mouse, plasma, iv, 40 mg/kg.
Experimental: as §1, §2, §3, §4

T1 sequence (Q08722 19-127 limits assumed): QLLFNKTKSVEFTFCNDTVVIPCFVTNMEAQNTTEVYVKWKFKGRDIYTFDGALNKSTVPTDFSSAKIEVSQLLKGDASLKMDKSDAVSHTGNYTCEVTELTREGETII

For orientation: half-life means the time in which the quantity being followed falls by half. A higher half-life goes with slow decline. One may read the Cmax as the peak of the concentration-time curve. Take `C[C@H](NC(=O)[C@@H](CO)NC(=O)[C@@H](Cc1c[nH]c2ccccc12)NC(=O)[C@@H](C)N)C(=O)N[C@H](C(=O)N[C@@H](Cc1c[nH]c2ccccc12)C(=O)N[C@@H](CO)C(=O)N[C@@H](CC(N)=O)C(=O)N[C@@H](Cc1ccc(O)cc1)C(=O)N[C@H](Cc1c[nH]c2ccccc12)C(=O)N[C@H](CCCNC(=N)N)C(=O)N[C@H](Cc1c[nH]cn1)C(=O)O)[C@@H](C)O` [pep-20-D12] (H-[dA][dW][dS]ATWSNY[dW][dR][dH]-OH): the “Blocking rate relative to pep-20 (%)” value in series [1] is 105%. Moreover, the “Time for which the initial concentration was retained in human serum” value in series [2] was “up to 36 hours”. For the same compound, the “Blood toxicity (red blood cell, hemoglobin) compared with anti-CD47 antibody” value in series [3] was “less blood toxicity”. In addition, in series [4], the half-life is 6.36 h. For the same compound, in series [5], the Cmax is 54.5 µg/mL.
